# PubChem BioAssay AID624404 (Broad Institute, 2012)
# Records with an inconclusive call do not appear. Active and inactive are the calls of the source.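 How the source made its calls: active means luciferase signal rise whose fitted curve crosses a set activity limit at or below the top valid tested dose; inconclusive means flat fit with 30 to 70% rise, or poor fit; inactive means signal falling, flat within 30%, or crossing above top dose.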
# Tested on: D54 LucT luciferase reporter counterscreen, luminescence, 24 h
# Test: reporter signal increase, D54 LucT cells – cell-based, luminescence, cherry pick, counter-screen for N-linked glycosylation inhibitor project, dose response (AID 624404)
row,SMILES,AC35
1,Cc1cccc2c(C(=O)N3CCN(c4ccccc4)CC3)cc(-c3ccncc3)nc12,0.126 µM
2,COc1ccc(S(=O)(=O)Nc2ccc3c(c2)n(C)c(=O)n3C)cc1OC,0.104 µM
3,C[C@H](CO)N1C[C@H](C)[C@@H](CN(C)S(=O)(=O)c2ccccc2)Oc2c(NC(=O)Cc3ccccc3)cccc2C1=O,2.24 µM
4,CCOc1cc(N2CCOCC2)c(OCC)cc1NC(=O)c1[nH]c(C)c(C(C)=O)c1C,0.0107 µM
5,C[C@@]12C(=O)Nc3ccc(Br)cc3C(=O)N1[C@H]1c3ccccc3OC[C@@H]1[C@@H]2c1ccccc1,0.785 µM
6,Cc1ccc(C(=O)N/C(=C/c2cccs2)C(=O)NCCc2c[nH]c3ccccc23)cc1,1.17 µM
7,Cc1cc(=O)oc2cc(OCC3CC(c4ccccc4)=NO3)ccc12 (stereo not drawn),1.54 µM
8,C#CCCOC(=O)N1C2=NC(C(=O)OC)=C(C(=O)OC)[C@@H]3N(C)c4ccccc4[C@]23C[C@H]1C(=O)OC,0.934 µM
9,O=c1cc(-c2ccccc2)nc2cc(-c3ccc(F)cc3)[nH]n12,2.19 µM
10,Cc1cnc(NC(=O)C2CC(=O)N(c3cccc(Cl)c3)C2)s1 (stereo not drawn),1.6 µM
11,COc1ccc(-n2c(NNC(C)=O)nc3sc4c(c3c2=O)CCCC4)cc1,1.86 µM
12,Cc1cc(=O)[nH]c2c(C)cc(S(=O)(=O)N3CCCCC3)cc12,0.411 µM
13,CC(=O)Nc1ccc(-c2ccnc3c2CC(C(=O)NCc2cccc(Cl)c2)O3)cc1 (stereo not drawn),0.0576 µM
14,N=c1c(S(=O)(=O)c2ccc(Cl)cc2)cc2c(=O)n3ccccc3nc2n1CCc1ccccc1,0.564 µM
15,O=C1Nc2ccccc2/C1=C/c1cnc[nH]1,0.00709 µM
16,Cc1cccc(Nc2nc(N)nc(-c3oc4ccccc4c3C)n2)c1,1.57 µM
17,CCc1ccc(/C=N/NC(=O)c2nnn(-c3nonc3N)c2C(C)C)cc1,2.63 µM
18,CCOC(=O)c1c(C)c(C(=O)Nc2cc(F)ccc2F)c(C)n1C,3.02 µM
19,O=C(CCN1C(=O)/C(=C/c2cccs2)SC1=S)N1CCCCC1,4.53 µM
20,O=C1C=C(c2cccs2)C[C@H](c2ccccc2)[C@H]1n1nnc([N+](=O)[O-])n1,0.208 µM
21,COc1ccc2c(c1)C(=O)N1[C@H]3c4cc(C)ccc4OC[C@@H]3[C@H](c3ccccc3)[C@]1(C)C(=O)N2,0.933 µM
22,COc1cccc(C(=O)Nc2sc3c(c2C#N)CCN(C(C)=O)C3)c1,0.0635 µM
23,COc1ccc(Nc2nc(N)c(C(=O)c3ccc(OC)cc3)s2)cc1,0.148 µM
24,O=C1c2cccc3c([N+](=O)[O-])ccc(c23)C(=O)N1CC1CCCO1 (stereo not drawn),0.315 µM
25,CN(CCCNC(=O)CCCOc1cc(=O)n(C)c2ccccc12)Cc1ccccc1,5.23 µM
26,O=C(N/N=C/c1cccnc1)c1cc(-c2ccccc2OCc2ccccc2)n[nH]1,2.46 µM
27,OCC1OC(n2cnc3c(SCc4ccccc4)ncnc32)C(O)C1O (stereo not drawn),0.733 µM

row,SMILES,AC35
1,COc1ccc(C2=NOC(C(=O)NCc3ccco3)C2)cc1 (stereo not drawn),0.784 µM
2,O=C(c1cn(Cc2ccccc2)nc1-c1ccccc1)N1CCN(c2ccccn2)CC1,0.984 µM
3,NC1(C(=O)O)CSSC1,3.05 µM
4,COc1ccc([C@@H]2[C@@H]3C(=O)N(C(C)(C)C)C(=O)[C@@H]3[C@]3(Cc4ccccc4)C(=O)N(c4cccc(C)c4)C(=O)N23)cc1,0.843 µM
5,N#CC1=C(N)Oc2c(c(=O)sc3ccccc23)C1c1cccnc1 (stereo not drawn),1.26 µM
6,Cc1cc(C)c2c(N)c3cccc(C)c3nc2n1,5.82 µM
7,Cc1ccc(C(=O)N2CCC(C(=O)Nc3cccc([N+](=O)[O-])c3)CC2)cc1,1.7 µM
8,Cc1ccc(N2C(=O)Nc3ccccc3C2(O)C(=O)N2CCN(c3ccccn3)CC2)cc1C (stereo not drawn),0.375 µM
9,OCCCN=c1cc(-c2ccccc2)oc2ccc(Cl)cc12,0.971 µM
10,Nc1c2ccccc2nc2ccccc12,4.9 µM
11,CC(C)(C)c1ccc(OCc2ccc(C(=O)N3CCOCC3)o2)cc1,1.46 µM
12,C=CCn1c(SCc2c(C)noc2C)nc2sc(C)c(C)c2c1=O,2.02 µM
13,CCOC(=O)n1c(=O)n(Cc2ccc(OC)cc2)c2ccccc21,> 19.5 µM (inactive)
14,O=C(N/N=C/c1ccco1)c1ccccc1OCc1ccccc1Cl,1.11 µM
15,O=C(/C=C/c1cccc([N+](=O)[O-])c1)c1ccc2c(c1)OCCO2,0.247 µM
16,CCOC(=O)[C@H]1[C@H]2COc3ccc(OC)cc3[C@@H]2N2C(=O)c3cc(OC)c(OC)cc3NC(=O)[C@@]12C,3.03 µM
17,COc1ccc(/C=C/C(=O)c2ccccc2)cc1COc1ccccc1F,> 19.5 µM (inactive)
18,CSc1nnc(-c2sccc2OCc2ccccc2)n1C,0.929 µM
19,O=C1NC(=O)N(Cc2ccccc2)C(=O)/C1=C/C=C/c1ccco1,5.28 µM
20,Cc1ccnc(NC(=O)Nc2ccc3c(c2)N(C)C(=O)CS3)c1,0.00868 µM
21,O=C(Nc1ccc2oc(-c3cccnc3)nc2c1)c1ccc([N+](=O)[O-])o1,1.46 µM
22,COc1ccccc1N1CC(O)=C(c2nc3ccccc3c(=O)[nH]2)C1=N,5.72 µM
23,Cc1ccc(C(=O)N/C(=C\c2ccco2)C(=O)NCCc2c[nH]c3ccccc23)cc1,1.74 µM
24,COc1ccc(S(=O)(=O)NCc2ccccn2)cc1NC(=O)c1ccccc1C,3.11 µM
25,Cc1nc2ncccn2c1-c1csc(Nc2ccc(N(C)C)cc2)n1,0.0289 µM
26,Oc1ccc(-c2csc(-c3c[nH]c4ccccc34)n2)c(O)c1,0.697 µM
